Test results as given in patent US4992420A, “Dental anti-plaque and anti-caries agent” (priority 1987, dated 1991).

Tests used:
S. sanguis OMZ 9 [1] = test: microbe, parasite or virus in culture; details: Streptococcus, OMZ9, 4 h, read-out: Inhibition (%) of adhesion to plastic tubes, S. sanguis OMZ 9
A. viscosus OMZ 105 [2] = test: microbe, parasite or virus in culture; details: Actinomyces viscosus, OMZ105, 4 h, read-out: Inhibition (%) of adhesion to plastic tubes, A. viscosus OMZ 105
S. mutans OMZ 176 = test: Inhibition of bacterial adhesion to plastic (polypropylene) tubes, S. mutans; details: for inhibition at 1000 µg/mL: Streptococcus mutans, OMZ176, 4 h, read-out: Inhibition (%) of adhesion to plastic tubes, S. mutans OMZ 176; for Inhibition (%) of adhesion to plastic tubes, S. mutans OMZ 176: 1 mg/ml, 4 h
A. viscosus OMZ 206 = test: Inhibition of bacterial adhesion to plastic (polypropylene) tubes, A. viscosus OMZ 206; details: Actinomyces viscosus, OMZ206, 4 h, read-out: Inhibition (%) of adhesion to plastic tubes, A. viscosus OMZ 206
A. naeslundii ATCC 12104 = details: desialylated human erythrocytes (A+); no control of bacterial growth phase; none = no inhibition up to 20 mg/ml
A. viscosus OMZ 105 [3] = system: A. viscosus OMZ 105
A. viscosus OMZ 105 [4] = details: for Inhibition (%) of adhesion to plastic tubes, A. viscosus OMZ 105: 1 mg/ml, 4 h; for Inhibitory effect on adhesion to plastic tubes (in words), A. viscosus OMZ 105: preliminary tests
S. sanguis OMZ 9 [5] = details: for Inhibition (%) of adhesion to plastic tubes, S. sanguis OMZ 9: 1 mg/ml, 4 h; for Inhibitory effect on adhesion to plastic tubes (in words), S. sanguis OMZ 9: preliminary tests

O=C[C@H](O)[C@@H](O)[C@@H](O)[C@H](O)CO [Galactose]
inhibition at 1000 µg/mL (S. sanguis OMZ 9 [1]): 12%
inhibition at 1000 µg/mL (A. viscosus OMZ 105 [2]): 12%
inhibition at 1000 µg/mL (S. mutans OMZ 176): 4%

OC[C@H]1O[C@@H](O[C@H]2[C@H](O)[C@@H](O)C(O)O[C@@H]2CO)[C@H](O)[C@@H](O)[C@H]1O (stereo partly shown) [Lactose]
inhibition at 1000 µg/mL (S. sanguis OMZ 9 [1]): 12%
inhibition at 1000 µg/mL (A. viscosus OMZ 206): 15%
Minimum concentration resulting in complete inhibition of hemagglutination, A. naeslundii ATCC 12104 (A. naeslundii ATCC 12104): none
inhibition at 1000 µg/mL (A. viscosus OMZ 105 [2]): 14%
inhibition at 1000 µg/mL (S. mutans OMZ 176): 4%
Minimum concentration resulting in complete inhibition of hemagglutination, expressed in galactoside equivalents/ml (A. viscosus OMZ 105 [3]; A. viscosus OMZ harvested in the exponential phase, desialylated human erythrocytes (A+)): > 10 mg/mL
Minimum concentration resulting in complete inhibition of hemagglutination, expressed in dry weight/ml (A. viscosus OMZ 105 [3]; A. viscosus OMZ harvested in the exponential phase, desialylated human erythrocytes (A+), none = no inhibition up to 20 mg/ml): none
Minimum concentration resulting in complete inhibition of hemagglutination, A. viscosus OMZ 105 (A. viscosus OMZ 105 [3]; desialylated human erythrocytes (A+), no control of bacterial growth phase, none = no inhibition up to 20 mg/ml): none
Inhibition of hemagglutinations governed by type 2 pili (in words) (A. viscosus OMZ 105 [3]; summary of Tables I and II): completely ineffective

COC1OC(CO)C(O)C(O)C1O (stereo not drawn) [Methyl α mannoside]
Inhibition (%) of adhesion to plastic tubes, S. mutans OMZ 176 (S. mutans OMZ 176): 3%
Inhibition (%) of adhesion to plastic tubes, A. viscosus OMZ 105 (A. viscosus OMZ 105 [4]): 10%
Inhibition (%) of adhesion to plastic tubes, S. sanguis OMZ 9 (S. sanguis OMZ 9 [5]): 11%

O=C[C@H](O)[C@@H](O)[C@H](O)[C@H](O)CO [glucose]
Inhibitory effect on adhesion to plastic tubes (in words), A. viscosus OMZ 105 (A. viscosus OMZ 105 [4]): nonactivity
Inhibitory effect on adhesion to plastic tubes (in words), S. sanguis OMZ 9 (S. sanguis OMZ 9 [5]): nonactivity

NCC(=O)O [glycine]
Inhibitory effect on adhesion to plastic tubes (in words), A. viscosus OMZ 105 (A. viscosus OMZ 105 [4]): nonactivity
Inhibitory effect on adhesion to plastic tubes (in words), S. sanguis OMZ 9 (S. sanguis OMZ 9 [5]): nonactivity

Polyglutamic acid
Inhibition (%) of adhesion to plastic tubes, S. mutans OMZ 176 (S. mutans OMZ 176): 20%
Inhibition (%) of adhesion to plastic tubes, A. viscosus OMZ 105 (A. viscosus OMZ 105 [4]): 22%
Inhibition (%) of adhesion to plastic tubes, S. sanguis OMZ 9 (S. sanguis OMZ 9 [5]): 6%

Polylysine
Inhibition (%) of adhesion to plastic tubes, S. mutans OMZ 176 (S. mutans OMZ 176): 30%
Inhibition (%) of adhesion to plastic tubes, A. viscosus OMZ 105 (A. viscosus OMZ 105 [4]): 46%
Inhibition (%) of adhesion to plastic tubes, S. sanguis OMZ 9 (S. sanguis OMZ 9 [5]): 12%
